Measured values published in ChEMBL document CHEMBL5291721, “A preclinical secondary pharmacology resource illuminates target-adverse drug reaction associations of marketed drugs” (Nat Commun, 2023).

Tests used:
Adenosine receptor A3 = target: T1, Adenosine receptor A3 (Homo sapiens, UniProt P0DMS8)
T1 sequence (P0DMS8 whole entry): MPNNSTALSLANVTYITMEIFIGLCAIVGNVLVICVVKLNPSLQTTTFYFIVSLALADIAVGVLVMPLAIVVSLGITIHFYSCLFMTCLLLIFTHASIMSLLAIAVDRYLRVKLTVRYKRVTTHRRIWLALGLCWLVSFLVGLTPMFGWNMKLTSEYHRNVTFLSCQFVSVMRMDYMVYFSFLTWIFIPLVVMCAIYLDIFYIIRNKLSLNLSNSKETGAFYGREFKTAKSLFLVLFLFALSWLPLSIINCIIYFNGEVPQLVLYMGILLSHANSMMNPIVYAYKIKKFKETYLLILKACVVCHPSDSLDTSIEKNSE

[1] = target: T2, Alpha-1A adrenergic receptor (Homo sapiens, UniProt P35348); format: functional, cell-based
T2 sequence (P35348 whole entry): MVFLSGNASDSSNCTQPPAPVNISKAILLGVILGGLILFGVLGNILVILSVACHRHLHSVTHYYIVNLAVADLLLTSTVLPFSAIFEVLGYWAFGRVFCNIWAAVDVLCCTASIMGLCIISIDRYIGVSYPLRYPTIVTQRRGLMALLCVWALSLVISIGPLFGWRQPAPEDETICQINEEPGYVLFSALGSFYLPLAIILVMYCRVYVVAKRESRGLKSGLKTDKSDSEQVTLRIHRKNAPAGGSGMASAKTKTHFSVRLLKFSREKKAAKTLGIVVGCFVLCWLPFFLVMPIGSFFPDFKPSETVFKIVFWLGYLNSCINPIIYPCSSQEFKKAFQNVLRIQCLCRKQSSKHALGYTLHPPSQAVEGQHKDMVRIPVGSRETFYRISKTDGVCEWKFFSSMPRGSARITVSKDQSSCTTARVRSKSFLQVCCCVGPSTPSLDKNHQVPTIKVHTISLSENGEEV

[2] = target: T3, Alpha-2A adrenergic receptor (Homo sapiens, UniProt P08913)
T3 sequence (P08913 whole entry): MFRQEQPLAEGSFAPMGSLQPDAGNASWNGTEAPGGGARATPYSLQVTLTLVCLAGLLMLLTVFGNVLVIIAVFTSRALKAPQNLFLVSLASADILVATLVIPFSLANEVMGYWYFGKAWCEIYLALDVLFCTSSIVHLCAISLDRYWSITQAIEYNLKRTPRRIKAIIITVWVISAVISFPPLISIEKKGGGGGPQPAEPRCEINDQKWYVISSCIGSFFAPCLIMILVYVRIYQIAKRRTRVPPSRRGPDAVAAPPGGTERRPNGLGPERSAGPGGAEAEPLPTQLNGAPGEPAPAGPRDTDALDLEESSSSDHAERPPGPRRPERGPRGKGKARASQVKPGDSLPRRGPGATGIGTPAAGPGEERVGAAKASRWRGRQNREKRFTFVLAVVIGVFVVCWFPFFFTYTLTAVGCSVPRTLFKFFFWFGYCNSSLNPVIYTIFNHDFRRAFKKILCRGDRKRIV

D(1A) dopamine receptor = D(1A) dopamine receptor (Homo sapiens, UniProt P21728)
[3] = target: Gamma-aminobutyric acid receptor subunit alpha-1/alpha-2/beta-2/gamma-2 (Homo sapiens, UniProt P14867+P18507+P47869+P47870); format: protein-complex assay
[4] = target: Vascular endothelial growth factor receptor 2 (Homo sapiens, UniProt P35968); format: functional
[5] = target: T4, Prostaglandin G/H synthase 1 (Homo sapiens, UniProt P23219); format: functional
[6] = target: T4, Prostaglandin G/H synthase 1; format: functional; remark: listed apart in the source
[7] = target: Beta-3 adrenergic receptor (Homo sapiens, UniProt P13945)
Vasopressin V1a receptor = Vasopressin V1a receptor (Homo sapiens, UniProt P37288)
Vasopressin V2 receptor = Vasopressin V2 receptor (Homo sapiens, UniProt P30518)
[8] = target: Voltage-dependent L-type calcium channel subunit alpha-1C (Rattus norvegicus, UniProt P22002); format: functional
[9] = target: T5, Muscarinic acetylcholine receptor M1 (Homo sapiens, UniProt P11229); format: functional
T5 sequence (P11229 whole entry): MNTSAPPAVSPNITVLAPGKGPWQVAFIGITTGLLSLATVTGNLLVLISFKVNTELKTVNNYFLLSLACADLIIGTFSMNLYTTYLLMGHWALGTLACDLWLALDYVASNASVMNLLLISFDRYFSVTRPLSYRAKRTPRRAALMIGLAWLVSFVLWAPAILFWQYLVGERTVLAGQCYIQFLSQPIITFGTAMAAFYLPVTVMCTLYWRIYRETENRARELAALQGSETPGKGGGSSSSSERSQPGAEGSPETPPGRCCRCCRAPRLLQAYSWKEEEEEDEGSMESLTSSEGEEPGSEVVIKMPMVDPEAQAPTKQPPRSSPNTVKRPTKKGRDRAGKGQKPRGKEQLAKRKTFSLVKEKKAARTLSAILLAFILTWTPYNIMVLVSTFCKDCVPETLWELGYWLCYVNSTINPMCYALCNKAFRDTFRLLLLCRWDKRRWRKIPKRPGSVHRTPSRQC

Histamine H2 receptor = Histamine H2 receptor (Homo sapiens, UniProt P25021); format: functional, cell-based
Cannabinoid receptor 1 = Cannabinoid receptor 1 (Homo sapiens, UniProt P21554)
Further: assay procedure not described here.

Vasopressin V2 receptor, sequence (P30518 whole entry): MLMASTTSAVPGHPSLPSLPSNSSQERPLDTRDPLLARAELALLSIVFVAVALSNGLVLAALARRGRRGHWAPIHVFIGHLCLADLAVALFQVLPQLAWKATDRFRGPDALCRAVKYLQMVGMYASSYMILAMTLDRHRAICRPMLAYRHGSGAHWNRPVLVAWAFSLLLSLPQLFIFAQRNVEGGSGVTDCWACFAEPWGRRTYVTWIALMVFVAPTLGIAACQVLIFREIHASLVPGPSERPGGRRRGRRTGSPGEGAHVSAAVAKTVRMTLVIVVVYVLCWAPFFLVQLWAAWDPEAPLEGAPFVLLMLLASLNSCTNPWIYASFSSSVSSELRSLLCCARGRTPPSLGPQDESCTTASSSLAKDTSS
Vasopressin V1a receptor, sequence (P37288 whole entry): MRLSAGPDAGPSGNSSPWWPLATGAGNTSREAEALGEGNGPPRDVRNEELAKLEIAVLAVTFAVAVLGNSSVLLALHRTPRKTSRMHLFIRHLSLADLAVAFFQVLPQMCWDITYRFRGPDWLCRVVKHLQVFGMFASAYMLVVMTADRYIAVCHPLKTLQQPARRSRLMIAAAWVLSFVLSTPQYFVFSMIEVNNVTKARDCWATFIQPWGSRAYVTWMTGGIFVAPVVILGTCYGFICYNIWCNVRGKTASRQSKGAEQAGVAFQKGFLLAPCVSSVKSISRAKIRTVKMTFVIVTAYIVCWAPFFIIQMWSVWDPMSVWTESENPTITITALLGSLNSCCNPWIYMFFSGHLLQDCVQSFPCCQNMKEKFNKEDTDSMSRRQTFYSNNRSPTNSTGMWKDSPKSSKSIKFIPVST
Beta-3 adrenergic receptor, sequence (P13945 whole entry): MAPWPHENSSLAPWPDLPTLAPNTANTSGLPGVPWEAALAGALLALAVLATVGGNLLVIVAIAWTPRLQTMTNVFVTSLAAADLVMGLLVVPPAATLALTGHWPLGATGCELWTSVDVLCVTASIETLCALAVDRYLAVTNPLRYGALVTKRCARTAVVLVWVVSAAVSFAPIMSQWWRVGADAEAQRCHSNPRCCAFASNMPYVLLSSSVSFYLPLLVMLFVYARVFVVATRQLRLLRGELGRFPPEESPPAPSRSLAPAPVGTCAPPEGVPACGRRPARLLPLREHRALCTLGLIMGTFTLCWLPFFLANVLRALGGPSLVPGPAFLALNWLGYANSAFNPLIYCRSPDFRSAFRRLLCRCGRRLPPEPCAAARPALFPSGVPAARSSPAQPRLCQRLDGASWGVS
Gamma-aminobutyric acid receptor subunit alpha-1/alpha-2/beta-2/gamma-2, sequence (P14867 whole entry): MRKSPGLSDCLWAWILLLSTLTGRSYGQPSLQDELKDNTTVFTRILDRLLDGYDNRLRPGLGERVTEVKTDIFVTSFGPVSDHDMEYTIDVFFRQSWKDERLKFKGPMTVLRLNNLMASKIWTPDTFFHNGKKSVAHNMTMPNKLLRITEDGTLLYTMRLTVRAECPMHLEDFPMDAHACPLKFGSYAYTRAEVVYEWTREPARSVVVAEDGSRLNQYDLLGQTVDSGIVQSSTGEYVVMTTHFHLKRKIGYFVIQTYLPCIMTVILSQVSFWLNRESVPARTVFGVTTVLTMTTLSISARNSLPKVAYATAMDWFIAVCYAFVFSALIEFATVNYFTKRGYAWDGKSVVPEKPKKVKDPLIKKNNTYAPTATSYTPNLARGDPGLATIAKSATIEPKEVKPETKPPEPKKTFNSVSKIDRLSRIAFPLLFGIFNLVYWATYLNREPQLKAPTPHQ
Gamma-aminobutyric acid receptor subunit alpha-1/alpha-2/beta-2/gamma-2, sequence (P47870 whole entry): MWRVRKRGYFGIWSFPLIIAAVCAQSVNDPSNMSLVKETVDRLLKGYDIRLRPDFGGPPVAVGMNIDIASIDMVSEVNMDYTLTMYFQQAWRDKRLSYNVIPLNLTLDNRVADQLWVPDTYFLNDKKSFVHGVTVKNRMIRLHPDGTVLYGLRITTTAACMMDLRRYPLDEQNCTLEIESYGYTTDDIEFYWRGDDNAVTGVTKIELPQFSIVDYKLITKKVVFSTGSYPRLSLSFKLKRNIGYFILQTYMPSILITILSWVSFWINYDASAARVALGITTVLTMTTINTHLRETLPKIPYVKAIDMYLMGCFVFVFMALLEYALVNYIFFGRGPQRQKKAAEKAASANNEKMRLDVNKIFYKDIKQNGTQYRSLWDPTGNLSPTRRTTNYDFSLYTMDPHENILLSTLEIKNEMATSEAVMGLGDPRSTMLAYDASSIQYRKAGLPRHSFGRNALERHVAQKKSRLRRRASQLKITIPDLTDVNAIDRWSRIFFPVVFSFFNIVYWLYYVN
Gamma-aminobutyric acid receptor subunit alpha-1/alpha-2/beta-2/gamma-2, sequence (P18507 whole entry): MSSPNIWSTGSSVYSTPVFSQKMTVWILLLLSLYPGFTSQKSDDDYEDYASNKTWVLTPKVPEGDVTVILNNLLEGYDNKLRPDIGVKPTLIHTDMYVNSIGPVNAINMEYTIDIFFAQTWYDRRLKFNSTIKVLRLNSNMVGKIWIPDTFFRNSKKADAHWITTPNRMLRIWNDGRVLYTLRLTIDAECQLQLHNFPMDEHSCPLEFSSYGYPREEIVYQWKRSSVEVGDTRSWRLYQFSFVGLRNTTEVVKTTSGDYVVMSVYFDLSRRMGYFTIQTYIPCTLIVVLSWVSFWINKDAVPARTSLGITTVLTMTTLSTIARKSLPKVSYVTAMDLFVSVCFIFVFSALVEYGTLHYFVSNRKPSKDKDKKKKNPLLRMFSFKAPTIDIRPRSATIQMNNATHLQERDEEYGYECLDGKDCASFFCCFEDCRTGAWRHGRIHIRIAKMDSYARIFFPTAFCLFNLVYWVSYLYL
Gamma-aminobutyric acid receptor subunit alpha-1/alpha-2/beta-2/gamma-2, sequence (P47869 whole entry): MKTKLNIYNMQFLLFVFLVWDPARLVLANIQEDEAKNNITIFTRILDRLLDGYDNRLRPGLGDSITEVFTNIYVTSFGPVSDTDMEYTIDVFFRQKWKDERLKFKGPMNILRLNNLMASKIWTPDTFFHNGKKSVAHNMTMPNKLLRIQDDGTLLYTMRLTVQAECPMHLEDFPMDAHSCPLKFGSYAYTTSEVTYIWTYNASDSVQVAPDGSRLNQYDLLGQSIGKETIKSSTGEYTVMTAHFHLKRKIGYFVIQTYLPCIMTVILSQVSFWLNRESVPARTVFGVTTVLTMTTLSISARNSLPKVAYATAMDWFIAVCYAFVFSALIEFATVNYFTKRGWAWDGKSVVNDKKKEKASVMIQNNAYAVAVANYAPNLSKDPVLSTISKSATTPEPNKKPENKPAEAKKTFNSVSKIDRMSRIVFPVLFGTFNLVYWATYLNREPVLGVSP
T4 sequence (P23219 whole entry): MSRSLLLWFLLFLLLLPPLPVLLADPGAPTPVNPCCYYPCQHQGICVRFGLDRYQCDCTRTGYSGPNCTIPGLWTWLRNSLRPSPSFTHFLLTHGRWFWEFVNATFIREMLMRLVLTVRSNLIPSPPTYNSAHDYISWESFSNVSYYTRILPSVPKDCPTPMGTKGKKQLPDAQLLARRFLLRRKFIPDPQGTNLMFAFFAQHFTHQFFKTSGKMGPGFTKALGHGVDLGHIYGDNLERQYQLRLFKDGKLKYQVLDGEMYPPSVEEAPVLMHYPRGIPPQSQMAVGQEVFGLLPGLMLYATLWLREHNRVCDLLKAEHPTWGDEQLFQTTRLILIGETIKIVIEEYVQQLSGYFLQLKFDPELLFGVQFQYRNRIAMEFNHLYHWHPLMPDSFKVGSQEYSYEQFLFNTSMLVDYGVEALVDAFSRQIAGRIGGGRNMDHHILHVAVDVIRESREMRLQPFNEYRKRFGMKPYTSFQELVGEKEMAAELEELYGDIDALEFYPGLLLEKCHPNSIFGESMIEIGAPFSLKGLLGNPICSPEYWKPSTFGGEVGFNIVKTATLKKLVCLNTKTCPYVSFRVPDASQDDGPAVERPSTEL
D(1A) dopamine receptor, sequence (P21728 whole entry): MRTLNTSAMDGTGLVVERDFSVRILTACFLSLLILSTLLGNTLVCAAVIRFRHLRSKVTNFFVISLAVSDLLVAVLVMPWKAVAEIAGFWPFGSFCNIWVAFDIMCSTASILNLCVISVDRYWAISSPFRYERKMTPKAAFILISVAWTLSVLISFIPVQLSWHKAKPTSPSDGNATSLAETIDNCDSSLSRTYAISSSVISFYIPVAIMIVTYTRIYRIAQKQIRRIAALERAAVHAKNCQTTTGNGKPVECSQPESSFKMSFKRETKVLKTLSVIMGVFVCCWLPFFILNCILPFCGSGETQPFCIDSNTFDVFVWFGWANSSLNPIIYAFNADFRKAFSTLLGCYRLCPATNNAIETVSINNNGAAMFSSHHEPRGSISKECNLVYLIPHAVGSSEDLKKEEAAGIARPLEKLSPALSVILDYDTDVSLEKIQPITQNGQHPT
Histamine H2 receptor, sequence (P25021 whole entry): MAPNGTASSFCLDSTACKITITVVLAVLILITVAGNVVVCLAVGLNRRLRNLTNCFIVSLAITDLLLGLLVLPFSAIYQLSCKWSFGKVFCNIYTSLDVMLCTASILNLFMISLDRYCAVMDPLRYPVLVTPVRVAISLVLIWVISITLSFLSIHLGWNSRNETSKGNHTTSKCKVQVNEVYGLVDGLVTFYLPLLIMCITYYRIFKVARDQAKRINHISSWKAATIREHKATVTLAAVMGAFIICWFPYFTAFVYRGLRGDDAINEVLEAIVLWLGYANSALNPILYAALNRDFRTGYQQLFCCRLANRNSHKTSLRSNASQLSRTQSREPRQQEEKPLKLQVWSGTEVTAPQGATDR
Cannabinoid receptor 1, sequence (P21554 whole entry): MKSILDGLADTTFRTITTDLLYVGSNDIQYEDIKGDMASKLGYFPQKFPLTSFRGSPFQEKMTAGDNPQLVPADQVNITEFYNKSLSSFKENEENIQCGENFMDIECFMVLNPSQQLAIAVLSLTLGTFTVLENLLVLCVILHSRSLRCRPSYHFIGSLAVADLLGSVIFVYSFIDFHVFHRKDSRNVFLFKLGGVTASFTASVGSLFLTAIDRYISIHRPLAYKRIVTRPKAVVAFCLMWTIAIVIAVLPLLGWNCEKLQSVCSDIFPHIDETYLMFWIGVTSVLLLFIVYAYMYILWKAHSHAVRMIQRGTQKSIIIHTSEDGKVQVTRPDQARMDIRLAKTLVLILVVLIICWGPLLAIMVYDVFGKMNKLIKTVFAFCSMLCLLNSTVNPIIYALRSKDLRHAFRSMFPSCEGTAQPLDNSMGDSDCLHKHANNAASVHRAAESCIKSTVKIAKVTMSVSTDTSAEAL

Row | Structure (SMILES) | AC50 (Adenosine receptor A3) [µM] | AC50 [1] [µM] | AC50 [2] [µM] | AC50 (D(1A) dopamine receptor) [µM] | AC50 [3] [µM] | AC50 [4] [µM] | AC50 [5] [µM] | AC50 [6] [µM] | AC50 [7] [µM] | AC50 (Vasopressin V1a receptor) [µM] | AC50 (Vasopressin V2 receptor) [µM] | AC50 [8] [µM] | AC50 [9] [µM] | AC50 (Histamine H2 receptor) [µM] | AC50 (Cannabinoid receptor 1) [µM]
1 | O=C1CC[C@@]2(O)[C@H]3Cc4ccc(O)c5c4[C@@]2(CCN3CC2CC2)[C@H]1O5 [NALTREXONE] | > 30 | > 30 | > 30 | > 30 | > 30 | > 30 | > 30 | > 30 |  |  |  |  |  |  | 
2 | CCc1nn(CCCN2CCN(c3cccc(Cl)c3)CC2)c(=O)n1CCOc1ccccc1 [NEFAZODONE] |  |  |  |  |  |  |  |  | 9.5 | > 10 | > 30 | > 10 | > 10 |  | 
3 | CC(N/C(=N\C#N)Nc1ccncc1)C(C)(C)C (centres undefined) [PINACIDIL ANHYDROUS] | > 30 | > 30 | > 30 | > 30 | > 30 | > 30 | > 30 | > 30 |  |  |  |  |  |  | 
4 | CCc1ccc(CCOc2ccc(CC3SC(=O)NC3=O)cc2)nc1 (centres undefined) [PIOGLITAZONE] | > 30 | > 10 | > 30 | > 30 |  | > 30 | > 30 | > 30 | > 30 | > 30 | > 30 | > 10 |  | > 10 | 
5 | CC(O)CO (centres undefined) [PROPYLENE GLYCOL] | > 30 | > 30 | > 30 | > 30 | > 30 | > 30 | > 30 | > 30 |  |  |  |  |  |  | 
6 | NC(=O)c1cnccn1 [PYRAZINAMIDE] | > 30 | > 30 | > 30 | > 30 | > 30 | > 30 | > 30 | > 30 | > 30 | > 30 | > 30 | > 30 |  | > 30 | > 30
7 | CN(C)C(=O)Oc1ccc[n+](C)c1 [PYRIDOSTIGMINE] | > 30 | > 30 | > 30 | > 30 | > 30 | > 30 | > 30 | > 30 |  |  |  |  |  |  | 
8 | CC(C)OC(=O)[C@H](C)N[P@](=O)(OC[C@H]1O[C@@H](n2ccc(=O)[nH]c2=O)[C@](C)(F)[C@@H]1O)Oc1ccccc1 [SOFOSBUVIR] | > 30 | > 30 | > 30 | > 30 | > 30 | > 30 | > 30 | > 30 |  |  |  |  |  |  | 
9 | CCOC(=O)N[C@@H]1CC[C@@H]2[C@@H](C1)C[C@H]1C(=O)O[C@H](C)[C@H]1[C@H]2/C=C/c1ccc(-c2cccc(F)c2)cn1 [VORAPAXAR] | 2.43 | > 30 | > 30 | > 30 | > 30 | > 30 | > 30 | > 30 |  |  |  |  |  |  | 
